Data published in ChEMBL document CHEMBL3286360, “Tuning the antimicrobial pharmacophore to enable discovery of short lipopeptides with multiple modes of action” (Eur J Med Chem, 2014).
In brackets after ≈: the same amount, converted by molar mass. Activity calls are given as the source filed them. The calls are words filed in the database; no cut-off is given here. Where a SMILES comes first, the peptide text is derived from it. The star is where a group is joined. Decanoyl = CCCCCCCCCC(=O)*

Tests used:
[1] = system: Escherichia coli; test: Antimicrobial activity against Escherichia coli ATCC 25922 after 17 to 20 hrs by serial dilution method; assay type: functional
[2] = Cytotoxicity against human TZM-b1 cells assessed as cell death at 500 ug/ml after 48 hrs by MTT assay; assay type: cell-based; details: tzm-b1, 48 h
[3] = system: Staphylococcus aureus; test: Antimicrobial activity against Staphylococcus aureus ATCC 12600 after 17 to 20 hrs by serial dilution method; assay type: functional
[4] = Cytotoxicity against human TZM-b1 cells assessed as survival at 40 ug/ml after 2 hrs by flow cytometry; assay type: cell-based; details: read-out: Survival
[5] = system: Escherichia coli; test: Antimicrobial activity against Escherichia coli ATCC 25922 assessed as disruption of membrane integrity measured as PI dye influx at 50 ug/ml after 20 mins by fluorescence microscopy; assay type: functional, organism-based
[6] = system: Staphylococcus aureus; test: Antimicrobial activity against Staphylococcus aureus ATCC 12600 assessed as cell death at 40 ug/ml after 1 hr by flow cytometry; assay type: functional
[7] = Cytotoxicity against human TZM-b1 cells assessed as cell death at 40 ug/ml after 1 hr by flow cytometry (reference value: 0 to 0.20 %); assay type: cell-based; details: tzm-b1, 1 h
[8] = system: Candida albicans; test: Antimicrobial activity against Candida albicans ATCC 14053 after 17 to 20 hrs by serial dilution method; assay type: functional
[9] = system: Priestia megaterium; test: Binding affinity to Bacillus megaterium pHis1525 DNA at 25 to 50 ug/ml after 30 mins by agarose gel electrophoresis
[10] = Cytotoxicity in human erythrocytes assessed as hemolysis at 250 ug/ml after 1 hr relative to control; assay type: cell-based, Erythrocyte; details: read-out: Activity
[11] = system: Escherichia coli; test: Antimicrobial activity against Escherichia coli ATCC 25922 assessed as disruption of membrane integrity measured as PI dye influx at 250 ug/ml after 20 mins by fluorescence microscopy; assay type: functional
[12] = system: Staphylococcus aureus; test: Antimicrobial activity against Staphylococcus aureus ATCC 12600 assessed as disruption of membrane integrity measured as PI dye influx at 50 ug/ml after 20 mins by fluorescence microscopy; assay type: functional, organism-based
[13] = system: Staphylococcus aureus; test: Antimicrobial activity against Staphylococcus aureus ATCC 12600 assessed as disruption of membrane integrity measured as PI dye influx at 250 ug/ml after 20 mins by fluorescence microscopy; assay type: functional, organism-based
[14] = Cytotoxicity against human TZM-b1 cells assessed as cell death at 40 ug/ml after 2 hrs by flow cytometry (reference value: 0 to 0.20 %); assay type: cell-based; details: tzm-b1, 2 h
[15] = Cytotoxicity in human erythrocytes assessed as hemolysis at 125 ug/ml after 1 hr relative to control; assay type: cell-based, Erythrocyte; details: read-out: Activity
[16] = Cytotoxicity against human TZM-b1 cells assessed as cell death at 125 ug/ml after 48 hrs by MTT assay; assay type: cell-based; details: tzm-b1, 48 h
[17] = Cytotoxicity against human TZM-b1 cells assessed as cell death after 48 hrs by MTT assay; assay type: cell-based; details: tzm-b1, 48 h

| Molecule | MIC [1] [µg/mL] | Activity [2] | MIC [3] [µg/mL] | viability at 2 h, 40 ug/ml [4] [%] | Activity [5] | Activity [6] [%] | Activity [7] [%] | MIC [8] [µg/mL] | Activity [9] | hemolysis at 1 h, 250 ug/ml [10] [%] | Activity [11] | Activity [12] | Activity [13] | Activity [14] [%] | hemolysis at 1 h, 125 ug/ml [15] [%] | Activity [16] | CC50 ([11]; ATCC 25922, 20 min) [µg/mL] | Activity [17] |
| --- | --- | --- | --- | --- | --- | --- | --- | --- | --- | --- | --- | --- | --- | --- | --- | --- | --- | --- |
| H-RKWWK-NH2 | > 62.5 | Non-toxic | 62.5 |  |  |  |  |  |  |  |  |  |  |  |  |  |  |  |
| CCCCCCCCCC(=O)N[C@@H](CCCNC(=N)N)C(=O)N[C@H](C(=O)N[C@@H](CCCCN)C(=O)N[C@@H](Cc1c[nH]c2ccccc12)C(=O)N[C@@H](CCCCN)C(N)=O)[C@@H](C)CC (Decanoyl-RIKWK-NH2) | 15.6 (≈ 17.7 µM) |  | 7.8 (≈ 8.83 µM) | > 99 | Active | >95 | 0.074 | > 62.5 | inactive | < 10 | Active | Active | Active | 0.083 |  |  |  |  |
| CCCCCCCCCC(=O)N[C@@H](CCCNC(=N)N)C(=O)N[C@@H](CCCCN)C(=O)N[C@@H](Cc1c[nH]c2ccccc12)C(=O)N[C@@H](Cc1c[nH]c2ccccc12)C(=O)N[C@@H](CCCCN)C(N)=O (Decanoyl-RKWWK-NH2) | 3.9 (≈ 4.08 µM) |  | 3.9 (≈ 4.08 µM) | > 99 | Active | >95 | 0.072 | 15.6 (≈ 16.3 µM) | Active |  |  | Active | Active | 0.128 | < 10 | Toxic | 115 (≈ 120 µM) | Toxic |
